# Patent US7935814B2, “Nitroguanosine-3′ 5′-cyclic monophosphate compound and protein kinase G activating agent” (Kumamoto University, priority 2005, dated 2011)
# Tests used:
# [1] = biological target: T1, protein kinase G (Homo sapiens, UniProt Q13976); test: Effect of activating protein kinase G: phosphorylation of Ser 157 of VASP detected by Western blotting in human uterine smooth muscle cells; assay type: cell-based; conditions: for 50-kDa band of VASP having the phosphorylated Ser at position 157 (anti-VASP (Ser157) antibody): 1 mM compound, 5, 10, 15 and 30 minutes after addition, no bands at 0 minutes
# T1 construct: host or cells: human uterine smooth muscle cells
# T1 sequence (Q13976 1-671): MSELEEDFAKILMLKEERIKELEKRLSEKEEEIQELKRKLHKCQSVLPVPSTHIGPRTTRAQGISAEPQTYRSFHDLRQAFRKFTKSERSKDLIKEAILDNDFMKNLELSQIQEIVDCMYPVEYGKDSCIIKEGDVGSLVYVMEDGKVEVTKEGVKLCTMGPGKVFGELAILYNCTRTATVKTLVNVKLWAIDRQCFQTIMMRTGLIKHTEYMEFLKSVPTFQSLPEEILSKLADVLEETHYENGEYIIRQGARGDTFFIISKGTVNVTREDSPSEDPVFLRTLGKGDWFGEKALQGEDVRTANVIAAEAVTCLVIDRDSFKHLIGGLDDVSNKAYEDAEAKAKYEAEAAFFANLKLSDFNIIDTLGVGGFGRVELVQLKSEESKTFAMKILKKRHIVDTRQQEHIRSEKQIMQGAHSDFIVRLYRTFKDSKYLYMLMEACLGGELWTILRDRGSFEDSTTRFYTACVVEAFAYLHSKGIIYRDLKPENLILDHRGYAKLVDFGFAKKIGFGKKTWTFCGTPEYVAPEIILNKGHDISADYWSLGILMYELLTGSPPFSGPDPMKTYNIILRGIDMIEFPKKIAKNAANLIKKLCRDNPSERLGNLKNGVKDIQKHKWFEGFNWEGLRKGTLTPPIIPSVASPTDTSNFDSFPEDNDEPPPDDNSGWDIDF
# Method: Intracellular signaling conducted by 8-nitroguanosine-3′,5′-cyclic monophosphate through mediation of protein kinase G was analyzed according to the method of Sergei D. Rybalkin et al (J. Biol. Chem. 277 3310-3317, 2002). Specifically, phosphorylation of Ser at position 157 of VASP (Vasodilator Stimulated Phosphoprotein), a substrate protein of protein kinase G, was detected by Western blotting. Specifically, human uterine smooth muscle cells (produced by CAMBREX) were cultured in Dulbecco's Modified Eagle Medium (DMEM-10% FCS) containing 10% fetal calf serum (FCS). The cells were seeded on a 6-well plate (produced by Falcon) at 4×10^5 cells/well and then cultured for 24 hours. The resultant was washed 3 times using phosphate buffered saline (PBS). Subsequently, DMEM-10% FCS containing 1 mM 8-nitroguanosine-3′,5′-cyclic monophosphate and 1 mM 8-Br-cGMP (produced by SIGMA) was added to the cells. Medium was immediately removed at 5 minutes, 10 minutes, 15 minutes, and 30 minutes after addition, followed by 2 instances of washing with PBS. A cell lysis solution (20 mM Tris-HCl (pH 8.0), 0.15 M NaCl, 1 mM EDTA, 1 mM EGTA, 1% TritonX-100, 2.5 mM sodium pyrophosphate, 1 mM β-glycerolphosphate, […], 1 μg/ml leupeptin, and 1 mM PMSF) was added. The resultant was allowed to stand on ice for 5 minutes, recovered using a cell scraper, transferred into an Eppendorf tube, and then ultrasonicated twice (5 seconds each). […] The protein concentration of the soluble fraction of the supernatant was determined using a BCA protein assay (produced by PIERCE). […] The resultant was then washed 3 times with TBST (10 minutes each), chemiluminescence was detected using LAS 1000plus (produced by FujiFilm) and ECL-plus (produced by Amersham Biosciences) as color developers, and then image files were incorporated. […] As is understood from the results in FIG. 1, no bands were detected at 0 minutes, but a 50-kDa band of VASP having the phosphorylated Ser at position 157 was detected at 5, 10, 15, and 30 minutes after addition of 8-nitroguanosine-3′,5′-cyclic monophosphate or 8-Br-cGMP.
# [2] = test system: excised rat carotid artery ring specimen; test: Effect of relaxing vascular smooth muscle: phenylephrine pre-contracted excised rat carotid artery ring specimen, Magnus equipment; conditions: for concentration required for exertion of the tension variation of 0.1 g: 100 nM phenylephrine pre-contraction, resting tension 1 g
# Method: The effect of relaxing vascular smooth muscle exerted by 8-nitroguanosine-3′,5′-cyclic monophosphate was determined according to the method of Magnus R (Ergen Physiol. 2, 637-672, 1903) by causing phenylephrine, which is an α1 adrenergic receptor agonist, to act to cause pre-contraction of an excised rat carotid artery ring specimen, adding 8-nitroguanosine-3′,5′-cyclic monophosphate at different concentrations, and then determining the resulting relaxing effect using Magnus laboratory equipment, Specifically, an SD rat (male, 10-week-old, body weight of 350 g, CHARLES RIVER LABORATORIES JAPAN, INC.) was sacrificed under ether anesthesia, a carotid artery was excised, a stainless-steel bar was inserted into the intravascular lumen, and then endothelial cells were removed through scraping, thereby preparing ring vascular specimens of approximately 4 mm each. The vascular specimens were immersed in 3 ml of a Krebs buffer (1.2 mM NaHPO4, 120 mM NaCl, 5.9 mM KCl, 2.5 mM CaCl2, 1.2 mM MgCl2, 15.5 mM NaHCO3, and 11.5 mM glucose). The Krebs buffer used herein had been previously kept at 37° C., aerated with 95% O2+5% CO2 for oxygenation, and adjusted to pH of 7.4. The ring vascular specimens were fixed within a microtissue organ bath MTOB-2 (produced by Labo Support Co., Ltd.). Isometric tension was measured at the resting tension of 1 g using an isometric transducer and an amplifier for such transducer (AG-621G Nihon Kohden Corporation). A PowerLab data acquisition apparatus (AD instruments) was used for data analysis. 1-Phenylephrine hydrochloride (produced by Wako Pure Chemical Industries, Ltd.) was added at a final concentration of 100 nM to the Krebs buffer, so as to sufficiently contract the blood vessels. 8-Nitroguanosine-3′,5′-cyclic monophosphate and 8-Br-cGMP were each cumulatively administered at final concentrations of 1 μM, 3 μM, 10 μM, 30 μM, 100 μM, and 300 μM. The relaxing action on vascular smooth muscle was determined. […] In particular, whereas the 8-nitroguanosine-3′,5′-cyclic monophosphate concentration required for exertion of the tension variation of 0.1 g was 10 μM, the 8-Br-cGMP concentration required for the same was 30 μM.
# [3] = endothelium-removed rat carotid artery ring
50-kDa band of VASP having the phosphorylated Ser at position 157 (anti-VASP (Ser157) antibody) [1],"50-kDa band shifted to the higher molecular weight side because of phosphorylation (antibody recognizing the entire VASP molecule) ([1]; 1 mM compound, at 5 minutes or more after addition, almost no 50-kDa band at 0 minutes)",SMILES,"concentration required for exertion of the tension variation of 0.1 g [2, 3]","relaxing effect on blood vessel contracted using phenylephrine ([2]; endothelium-removed rat carotid artery ring, 100 nM phenylephrine, cumulative 1-300 μM)","effect of relaxing vascular smooth muscle relative to 8-Br-cGMP ([2]; rat carotid artery ring, from concentrations giving tension variation of 0.1 g)"
detected,,"Nc1nc2c(nc(Br)n2[C@@H]2O[C@@H]3COP(=O)(O)O[C@H]3[C@H]2O)c(=O)[nH]1 [8-Br-cGMP, 8-bromoguanosine-3′,5′-cyclic monophosphate, reference compound]",30 µM,,
detected,detected in all cases,"Nc1nc2c(nc([N+](=O)[O-])n2C2O[C@@H]3COP(=O)(O)OC3C2O)c(=O)[nH]1 (stereo partly shown) [8-nitroguanosine-3′,5′-cyclic monophosphate]",10 µM,exerted a relaxing effect,approximately 3 times
